Data: patent US20250163104A1, “MACROCYCLIC IMMUNOMODULATORS” (priority 2021, published 2025)
Where a SMILES comes first, the peptide text is derived from it. Bridges are numbered along the chain shown (N, C = ends). [ ]: non-standard residue; d: D form. The star is where a group is joined. ξ: configuration not given here. Phe(4-COOH) = N[C@@H](Cc1ccc(C(=O)O)cc1)C(=O)O; Bip = N[C@@H](Cc1ccc(-c2ccccc2)cc1)C(=O)O; Phe(3-Me) = Cc1cccc(C[C@H](N)C(=O)O)c1; 4Pal = N[C@@H](Cc1ccncc1)C(=O)O; Cha = N[C@@H](CC1CCCCC1)C(=O)O; Ile(3ξ) = CCC(C)[C@H](N)C(=O)O; Carboxymethyl = O=C(O)C*; Orn = NCCC[C@H](N)C(=O)O; Dab = NCC[C@H](N)C(=O)O; Aib = CC(C)(N)C(=O)O

The compounds below were run against T1, human PD-1 / PD-L1-Ig binding on Jurkat cell line over-expressing human PD-1 (Jurkat-PD-1) (Homo sapiens, UniProt Q15116) (assay: Jurkat-PD-1 Cell Binding High-Content Screening Assay (CBA)). Conditions: Jurkat-PD-1 cells, PE-labeled PD-L1-Ig 20 nM final; read-out: Jurkat HPD1_PDL1 IC50.
T1 construct: expressed in transfected cells; host or cells: Jurkat
T1 sequence (Q15116 25-288): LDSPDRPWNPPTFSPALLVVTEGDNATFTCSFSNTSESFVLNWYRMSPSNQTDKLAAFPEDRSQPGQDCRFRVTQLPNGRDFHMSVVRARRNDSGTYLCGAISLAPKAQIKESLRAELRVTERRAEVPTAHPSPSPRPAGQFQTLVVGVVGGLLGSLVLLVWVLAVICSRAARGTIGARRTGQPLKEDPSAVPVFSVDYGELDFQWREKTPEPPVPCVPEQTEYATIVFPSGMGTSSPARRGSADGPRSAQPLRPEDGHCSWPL
Assay type: cell-based
Summary of the method: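 Read-out: high-content imaging of PE-tagged PD-L1-Ig bound to Jurkat cells overexpressing human PD-1, after fixation with 4% paraformaldehyde and Hoechst 33342 nuclear staining. Ligand was used at 20 nM final for 1 hour, after a 2 h compound exposure at 37° C in serum-containing DMEM.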

SMILES | IC50 [nM]
Cc1cccc(C[C@@H]2NC(=O)[C@H](CC(=O)O)NC(=O)[C@H](Cc3ccc(C(=O)O)cc3)NC(=O)[C@H](Cc3ccncc3)NC(=O)CSC[C@@H](C(=O)N[C@@H](CO)C(N)=O)NC(=O)[C@H](CO)NC(=O)[C@H](C(C)C)NC(=O)[C@H](CC3CCCCC3)NC(=O)[C@H](CCN)NC(=O)[C@@H](CC(C)C)NC(=O)[C@H](CCCN)NC(=O)[C@H](Cc3ccc(OCC(=O)O)cc3)NC(=O)[C@H](Cc3ccc(-c4ccccc4)cc3)NC(=O)[C@H](Cc3ccc(OCC(=O)O)cc3)NC2=O)c1 [Compound 2295] ({CH2CO}-[4Pal][Phe(4-COOH)]D[Phe(3-Me)]Y(Carboxymethyl)[Bip]Y(Carboxymethyl)[Orn][dL][Dab][Cha]VSCS-NH2; thioether N-14) | 11.7
Cc1cccc(C[C@@H]2NC(=O)[C@H](CC(=O)O)NC(=O)[C@H](Cc3ccc(C(=O)O)cc3)NC(=O)[C@H](Cc3ccncc3)NC(=O)CSC[C@@H](C(=O)NC(C)(C)C(N)=O)NC(=O)[C@H](CO)NC(=O)[C@H](C(C)C)NC(=O)[C@H](CC3CCCCC3)NC(=O)[C@H](CCN)NC(=O)[C@@H](CC(C)C)NC(=O)[C@H](CCCN)NC(=O)[C@H](Cc3ccc(OCC(=O)O)cc3)NC(=O)[C@H](Cc3ccc(-c4ccccc4)cc3)NC(=O)[C@H](Cc3ccc(OCC(=O)O)cc3)NC2=O)c1 [Compound 2296] ({CH2CO}-[4Pal][Phe(4-COOH)]D[Phe(3-Me)]Y(Carboxymethyl)[Bip]Y(Carboxymethyl)[Orn][dL][Dab][Cha]VSC[Aib]-NH2; thioether N-14) | 8.8
CCC(C)[C@@H]1NC(=O)[C@H](Cc2ccc(-c3ccccc3)cc2)NC(=O)[C@H](C(C)C)NC(=O)[C@H](Cc2cccc(C)c2)NC(=O)[C@H](CC(=O)O)NC(=O)[C@H](Cc2ccc(C(=O)O)cc2)NC(=O)[C@H](Cc2ccncc2)NC(=O)CSC[C@@H](C(=O)N[C@@H](CC(N)=O)C(N)=O)NC(=O)[C@H]([C@@H](C)O)NC(=O)[C@H](C(C)C)NC(=O)[C@H](CC2CCCCC2)NC(=O)[C@H](CCN)NC(=O)[C@@H](CC(C)C)NC(=O)[C@H](CCCN)NC1=O (some centres unmarked) [Compound 2297] | 10.4
CCC(C)[C@@H]1NC(=O)[C@H](Cc2ccc(-c3ccccc3)cc2)NC(=O)[C@H](C(C)C)NC(=O)[C@H](Cc2cccc(C)c2)NC(=O)[C@H](CC(=O)O)NC(=O)[C@H](Cc2ccc(C(=O)O)cc2)NC(=O)[C@H](Cc2ccncc2)NC(=O)CSC[C@@H](C(=O)N[C@@H](CC(N)=O)C(N)=O)NC(=O)[C@H](CO)NC(=O)[C@H](C(C)C)NC(=O)[C@H](CC2CCCCC2)NC(=O)[C@H](CCN)NC(=O)[C@@H](CC(C)C)NC(=O)[C@H](CCCN)NC1=O (stereo partly drawn) [Compound 2298] ({CH2CO}-[4Pal][Phe(4-COOH)]D[Phe(3-Me)]V[Bip][Ile(3ξ)][Orn][dL][Dab][Cha]VSCN-NH2; thioether N-14) | 15.5
CCC(C)[C@@H]1NC(=O)[C@H](Cc2ccc(-c3ccccc3)cc2)NC(=O)[C@H](C(C)C)NC(=O)[C@H](Cc2cccc(C)c2)NC(=O)[C@H](CC(=O)O)NC(=O)[C@H](Cc2ccc(C(=O)O)cc2)NC(=O)[C@H](Cc2ccncc2)NC(=O)CSC[C@@H](C(=O)N[C@@H](CC(N)=O)C(N)=O)NC(=O)[C@H]([C@@H](C)O)NC(=O)[C@H](C(C)C)NC(=O)[C@H](CC2CCCCC2)NC(=O)[C@H](CCN)NC(=O)[C@@H](CC(C)C)NC(=O)[C@H](CCCN)NC1=O (some centres unmarked) [Compound 2299] | 14.4
CCC(C)[C@@H]1NC(=O)[C@H](Cc2ccc(-c3ccccc3)cc2)NC(=O)[C@H](C(C)C)NC(=O)[C@H](Cc2cccc(C)c2)NC(=O)[C@H](CC(=O)O)NC(=O)[C@H](Cc2ccc(C(=O)O)cc2)NC(=O)[C@H](Cc2ccncc2)NC(=O)CSC[C@@H](C(=O)N[C@H](CC(N)=O)C(N)=O)NC(=O)[C@H](CO)NC(=O)[C@H](C(C)C)NC(=O)[C@H](CC2CCCCC2)NC(=O)[C@H](CCN)NC(=O)[C@@H](CC(C)C)NC(=O)[C@H](CCCN)NC1=O (stereo partly drawn) [Compound 2300] ({CH2CO}-[4Pal][Phe(4-COOH)]D[Phe(3-Me)]V[Bip][Ile(3ξ)][Orn][dL][Dab][Cha]VSC[dN]-NH2; thioether N-14) | 13.4
CCC(C)[C@@H]1NC(=O)[C@H](Cc2ccc(-c3ccccc3)cc2)NC(=O)[C@H](C(C)C)NC(=O)[C@H](Cc2cccc(C)c2)NC(=O)[C@H](CC(=O)O)NC(=O)[C@H](Cc2ccc(C(=O)O)cc2)NC(=O)[C@H](Cc2ccncc2)NC(=O)CSC[C@@H](C(=O)N[C@@H](CCN)C(N)=O)NC(=O)[C@H]([C@@H](C)O)NC(=O)[C@H](C(C)C)NC(=O)[C@H](CC2CCCCC2)NC(=O)[C@H](CCN)NC(=O)[C@@H](CC(C)C)NC(=O)[C@H](CCCN)NC1=O (some centres unmarked) [Compound 2301] | 14.8
Cc1cccc(C[C@@H]2NC(=O)[C@H](CC(=O)O)NC(=O)[C@H](Cc3ccc(C(=O)O)cc3)NC(=O)[C@H](Cc3ccncc3)NC(=O)CSC[C@@H](C(=O)N[C@@H](CC(N)=O)C(N)=O)NC(=O)[C@H]([C@@H](C)O)NC(=O)[C@H](C(C)C)NC(=O)[C@H](CC3CCCCC3)NC(=O)[C@H](CCN)NC(=O)[C@@H](CC(C)C)NC(=O)[C@H](CCCN)NC(=O)[C@H](Cc3ccc(OCC(=O)O)cc3)NC(=O)[C@H](Cc3ccc(-c4ccccc4)cc3)NC(=O)[C@H](Cc3ccc(OCC(=O)O)cc3)NC2=O)c1 [Compound 2302] ({CH2CO}-[4Pal][Phe(4-COOH)]D[Phe(3-Me)]Y(Carboxymethyl)[Bip]Y(Carboxymethyl)[Orn][dL][Dab][Cha]VTCN-NH2; thioether N-14) | 4
Cc1cccc(C[C@@H]2NC(=O)[C@H](CC(=O)O)NC(=O)[C@H](Cc3ccc(C(=O)O)cc3)NC(=O)[C@H](Cc3ccncc3)NC(=O)CSC[C@@H](C(=O)N[C@@H](CC(N)=O)C(N)=O)NC(=O)[C@H](CO)NC(=O)[C@H](C(C)C)NC(=O)[C@H](CC3CCCCC3)NC(=O)[C@H](CCN)NC(=O)[C@@H](CC(C)C)NC(=O)[C@H](CCCN)NC(=O)[C@H](Cc3ccc(OCC(=O)O)cc3)NC(=O)[C@H](Cc3ccc(-c4ccccc4)cc3)NC(=O)[C@H](Cc3ccc(OCC(=O)O)cc3)NC2=O)c1 [Compound 2303] ({CH2CO}-[4Pal][Phe(4-COOH)]D[Phe(3-Me)]Y(Carboxymethyl)[Bip]Y(Carboxymethyl)[Orn][dL][Dab][Cha]VSCN-NH2; thioether N-14) | 5.3
Cc1cccc(C[C@@H]2NC(=O)[C@H](CC(=O)O)NC(=O)[C@H](Cc3ccc(C(=O)O)cc3)NC(=O)[C@H](Cc3ccncc3)NC(=O)CSC[C@@H](C(=O)N[C@@H](CC(N)=O)C(N)=O)NC(=O)[C@H](CCC(=O)O)NC(=O)[C@H](C(C)C)NC(=O)[C@H](CC3CCCCC3)NC(=O)[C@H](CCN)NC(=O)[C@@H](CC(C)C)NC(=O)[C@H](CCCN)NC(=O)[C@H](Cc3ccc(OCC(=O)O)cc3)NC(=O)[C@H](Cc3ccc(-c4ccccc4)cc3)NC(=O)[C@H](Cc3ccc(OCC(=O)O)cc3)NC2=O)c1 [Compound 2304] ({CH2CO}-[4Pal][Phe(4-COOH)]D[Phe(3-Me)]Y(Carboxymethyl)[Bip]Y(Carboxymethyl)[Orn][dL][Dab][Cha]VECN-NH2; thioether N-14) | 15
Cc1cccc(C[C@@H]2NC(=O)[C@H](CC(=O)O)NC(=O)[C@H](Cc3ccc(C(=O)O)cc3)NC(=O)[C@H](Cc3ccncc3)NC(=O)CSC[C@@H](C(=O)N[C@@H](CC(N)=O)C(N)=O)NC(=O)[C@H](CCC(N)=O)NC(=O)[C@H](C(C)C)NC(=O)[C@H](CC3CCCCC3)NC(=O)[C@H](CCN)NC(=O)[C@@H](CC(C)C)NC(=O)[C@H](CCCN)NC(=O)[C@H](Cc3ccc(OCC(=O)O)cc3)NC(=O)[C@H](Cc3ccc(-c4ccccc4)cc3)NC(=O)[C@H](Cc3ccc(OCC(=O)O)cc3)NC2=O)c1 [Compound 2305] ({CH2CO}-[4Pal][Phe(4-COOH)]D[Phe(3-Me)]Y(Carboxymethyl)[Bip]Y(Carboxymethyl)[Orn][dL][Dab][Cha]VQCN-NH2; thioether N-14) | 10.2
Cc1cccc(C[C@@H]2NC(=O)[C@H](CC(=O)O)NC(=O)[C@H](Cc3ccc(C(=O)O)cc3)NC(=O)[C@H](Cc3ccncc3)NC(=O)CSC[C@@H](C(=O)N[C@@H](CCN)C(N)=O)NC(=O)[C@H]([C@@H](C)O)NC(=O)[C@H](C(C)C)NC(=O)[C@H](CC3CCCCC3)NC(=O)[C@H](CCN)NC(=O)[C@@H](CC(C)C)NC(=O)[C@H](CCCN)NC(=O)[C@H](Cc3ccc(OCC(=O)O)cc3)NC(=O)[C@H](Cc3ccc(-c4ccccc4)cc3)NC(=O)[C@H](Cc3ccc(OCC(=O)O)cc3)NC2=O)c1 [Compound 2306] ({CH2CO}-[4Pal][Phe(4-COOH)]D[Phe(3-Me)]Y(Carboxymethyl)[Bip]Y(Carboxymethyl)[Orn][dL][Dab][Cha]VTC[Dab]-NH2; thioether N-14) | 7.1
Cc1cccc(C[C@@H]2NC(=O)[C@H](CC(=O)O)NC(=O)[C@H](Cc3ccc(C(=O)O)cc3)NC(=O)[C@H](Cc3ccncc3)NC(=O)CSC[C@@H](C(=O)N[C@@H](CCN)C(N)=O)NC(=O)[C@H](CO)NC(=O)[C@H](C(C)C)NC(=O)[C@H](CC3CCCCC3)NC(=O)[C@H](CCN)NC(=O)[C@@H](CC(C)C)NC(=O)[C@H](CCCN)NC(=O)[C@H](Cc3ccc(OCC(=O)O)cc3)NC(=O)[C@H](Cc3ccc(-c4ccccc4)cc3)NC(=O)[C@H](Cc3ccc(OCC(=O)O)cc3)NC2=O)c1 [Compound 2307] ({CH2CO}-[4Pal][Phe(4-COOH)]D[Phe(3-Me)]Y(Carboxymethyl)[Bip]Y(Carboxymethyl)[Orn][dL][Dab][Cha]VSC[Dab]-NH2; thioether N-14) | 12.1
Cc1cccc(C[C@@H]2NC(=O)[C@H](CC(=O)O)NC(=O)[C@H](Cc3ccc(C(=O)O)cc3)NC(=O)[C@H](Cc3ccncc3)NC(=O)CSC[C@@H](C(=O)N[C@@H](CCN)C(N)=O)NC(=O)[C@H](CCC(=O)O)NC(=O)[C@H](C(C)C)NC(=O)[C@H](CC3CCCCC3)NC(=O)[C@H](CCN)NC(=O)[C@@H](CC(C)C)NC(=O)[C@H](CCCN)NC(=O)[C@H](Cc3ccc(OCC(=O)O)cc3)NC(=O)[C@H](Cc3ccc(-c4ccccc4)cc3)NC(=O)[C@H](Cc3ccc(OCC(=O)O)cc3)NC2=O)c1 [Compound 2308] ({CH2CO}-[4Pal][Phe(4-COOH)]D[Phe(3-Me)]Y(Carboxymethyl)[Bip]Y(Carboxymethyl)[Orn][dL][Dab][Cha]VEC[Dab]-NH2; thioether N-14) | 7.5
